Results published in patent US8754038B2, “Template-fixed peptidomimetics with CCR10 antagonistic activity” (priority 2009, dated 2014).
Numbered stars: 1 amine (or outer) side, 2 acyl side, 3 side chain; on linkers, the order of the positions; unused ones are H or OH. Square brackets hold non-standard residues; d marks the D form. Side chains are listed from the residue outwards. Peptide text beside a SMILES is read from it. * marks the point of attachment. Pro(4R-OPh) = O=C(O)[C@@H]1C[C@@H](Oc2ccccc2)CN1; Phe(4-CN) = N#Cc1ccc(C[C@H](N)C(=O)O)cc1; Hyp = O=C(O)[C@@H]1C[C@@H](O)CN1; Benzyl(4-Br) = Brc1ccc(C*)cc1; Ac5c = NC1(C(=O)O)CCCC1; Dab = NCC[C@H](N)C(=O)O; X10 = N#Cc1ccc(C*)cc1; X14 = N#Cc1cccc(C*)c1; CO = O=C([*:1])[*:2]; NHPh = c1ccc(N*)cc1

What was measured:
[1] = molecular target: T1, human CCR10 (Homo sapiens, UniProt P46092); experiment: Calcium flux assay (CCR10 antagonism, CCL27 as agonist); assay type: cell-based; conditions: CCR10 transfected 300-19 murine pre-B cells; CCL27 30 nM
T1 construct: expressed in transfected cells
T1 sequence (P46092 1-362): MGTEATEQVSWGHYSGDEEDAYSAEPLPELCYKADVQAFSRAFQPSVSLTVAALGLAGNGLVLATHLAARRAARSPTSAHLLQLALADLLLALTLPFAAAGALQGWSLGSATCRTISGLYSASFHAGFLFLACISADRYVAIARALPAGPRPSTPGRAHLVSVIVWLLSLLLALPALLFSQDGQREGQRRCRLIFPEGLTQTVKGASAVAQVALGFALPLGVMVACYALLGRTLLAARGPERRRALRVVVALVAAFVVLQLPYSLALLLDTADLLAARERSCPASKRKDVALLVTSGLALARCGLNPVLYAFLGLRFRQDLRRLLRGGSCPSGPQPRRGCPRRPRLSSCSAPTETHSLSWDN
Procedure: (§1) Lyophilized peptides were weighed on a Microbalance (Mettler MX5) and dissolved in aqueous 90% DMSO to a final concentration of 10 mM unless otherwise stated. Stock solutions were kept at +4° C., and protected from light.
(§2) Peptides were assayed for CCR10 antagonism in a calcium flux assay and in a chemotaxis assay using a mouse pre-B cell line 300-19 stably transfected with human CCR10, and with human CCL27 as agonist.
The calcium flux release was assessed using CCR10 transfected 300-19 murine pre-B cells. These cells were labeled as a batch with Calcium4 Reagent (Molecular Devices, Sunnyvale, Calif.) in HBSS buffer for 60 min.
After dispensing 8×10^4 cells in each well of a 384-well black plate, a concentrated solution of the β-hairpin peptidomimetics of this invention in HBSS+0.1% BSA+0.1% DMSO (final concentration) was added to the cells. The entire plate was centrifuged and placed in a Flexstation II (Molecular Devices) automated plate reader. After reading a 20 s baseline, the Flexstation dispensed CCL27 (RnD systems) at a final concentration of 30 nM in HBSS+0.1% BSA onto the cells and calcium flux was measured for an additional 70 s.
Alternatively a FIipR384 (Molecular Devices) was used for read out of the 384-well plates. In this case about 8×10^4 cells were placed in each well, centrifuged, placed in the FlipR and after 5 s of baseline reading, the β-hairpin peptidomimetics in HBSS+0.1% BSA+0.1% DMSO (final concentration) were added. After an incubation time of 5 min, the CCL27 solution was added to the mixture and the calcium flux was measured for 200 s.
The maximum signal was determined from control wells without inhibitor. Percentage of inhibition was calculated from a range of compound concentrations, which were subsequently used to calculate IC50 values (Softmax Pro, Molecular Devices). All steps were carried out at room temperature.

[2] = molecular target: T1, human CCR10; experiment: Chemotaxis assay (CCR10-transfected 300-19 cells, CCL27 gradient); assay type: cell-based; conditions: CCR10-transfected 300-19 murine pre-B cells; 30 nM CCL27 gradient
Procedure: as §1, §2
The chemotactic response of CCR10-transfected 300-19 murine pre-B cells to a gradient of CCL27 (CTACK) was measured using disposable Transwell® assay plates from Costar (5 μm pore size) according to the protocol of the manufacturer. Briefly, cells were grown under sterile conditions at 37° C. with 5% CO2 in flasks containing RPMI+5% FCS, glutamine, penicillin/streptomycin (all media components were from Life Technologies) and the appropriate selection antibiotics (Puromycin, G418 or Tetracycline). For the assay, cells were pelleted by centrifugation, washed once in Dulbecco's phosphate buffered saline (DPBS), and resuspended to give 1×10^6 cells/ml in RPMI+0.5% bovine serum albumin (BSA). 100 μl of cell suspension was applied to the top of the assay filter. The β-hairpin peptidomimetics, diluted in the same assay medium, were added to both top and bottom chambers. The cells were allowed to migrate for 4-6 hours at 37° C. into the bottom chamber of the assay plate containing 30 nM of CCL27 (RnD systems). Migrated cells were counted using a FACS cytometer (Cytomics FC500, Beckman Coulter). Data normalization was performed using the number of any cells that had migrated in the absence of the β-hairpin peptidomimetic and the number of cells that have randomly migrated in absence of CCL27 [these values were taken as 100% (no inhibitory activity) and 0%, respectively]. From a range of compound concentrations IC50 were determined using Prism5 (GraphPad software).

SMILES | IC50 [1] [nM] | IC50 [2] [nM]
NCC[C@@H]1NC(=O)[C@H](Cc2c[nH]c3ccccc23)NC(=O)C2(CCCC2)NC(=O)[C@H](Cc2c[nH]c3ccccc23)NC(=O)[C@@H]2C[C@@H](Oc3ccccc3)CN2C(=O)[C@H]2CCCN2C1=O [compound 52, cyclo(-Trp-Cyp-Trp-Dab-^DPro-Hyp(Ph)-)] (cyclo([Ac5c]W[Dab][dP][Pro(4R-OPh)]W)) | 42 ± 25.1 | 37
N#Cc1ccc(CO[C@@H]2C[C@H]3C(=O)N[C@@H](Cc4c[nH]c5ccccc45)C(=O)NC4(CCCC4)C(=O)N[C@@H](Cc4c[nH]c5ccccc45)C(=O)N[C@@H](CCN)C(=O)N4CCC[C@@H]4C(=O)N3C2)cc1 [compound 53, cyclo(-Trp-Cyp-Trp-Dab-^DPro-Hyp(4CNBn)-)] (cyclo([Ac5c]W[Dab][dP][Hyp](X10)W)) | 48.9 ± 40 | 143
N#Cc1ccc(C[C@@H]2NC(=O)[C@@H]3C[C@@H](OCc4ccc(Br)cc4)CN3C(=O)[C@H]3CCCN3C(=O)[C@H](CO)NC(=O)[C@H](Cc3c[nH]c4ccccc34)NC(=O)C3(CCCC3)NC2=O)cc1 [compound 55, cyclo(-Phe(4CN)-Cyp-Trp-Ser-^DPro-Hyp(4BrBn)-)] (cyclo([Ac5c]WS[dP][Hyp](Benzyl(4-Br))[Phe(4-CN)])) | 5.3 ± 3.9 | 0.6
NCC[C@@H]1NC(=O)[C@H](Cc2c[nH]c3ccccc23)NC(=O)C2(CCCC2)NC(=O)[C@H](Cc2c[nH]c3ccccc23)NC(=O)[C@@H]2C[C@@H](OCc3ccc(Br)cc3)CN2C(=O)[C@H]2CCCN2C1=O [compound 56, cyclo(-Trp-Cyp-Trp-Dab-^DPro-Hyp(4BrBn)-)] (cyclo([Ac5c]W[Dab][dP][Hyp](Benzyl(4-Br))W)) | 11.6 ± 9.2 | 2.5
NCC[C@@H]1NC(=O)[C@H](Cc2c[nH]c3ccccc23)NC(=O)C2(CCCC2)NC(=O)[C@H](Cc2c[nH]c3ccccc23)NC(=O)[C@@H]2C[C@@H](OC(=O)Nc3ccccc3)CN2C(=O)[C@H]2CCCN2C1=O [compound 57, cyclo(-Trp-Cyp-Trp-Dab-^DPro-Hyp(CONHPh)-)] (cyclo([Ac5c]W[Dab][dP][Hyp]([CO-NHPh])W)) | 150 ± 110 | 183
N#Cc1cccc(CO[C@@H]2C[C@H]3C(=O)N[C@@H](Cc4c[nH]c5ccccc45)C(=O)NC4(CCCC4)C(=O)N[C@@H](Cc4c[nH]c5ccccc45)C(=O)N[C@@H](CCN)C(=O)N4CCC[C@@H]4C(=O)N3C2)c1 [compound 77, cyclo(-Trp-Cyp-Trp-Dab-^DPro-Hyp(3CNBn)-)] (cyclo([Ac5c]W[Dab][dP][Hyp](X14)W)) | 127 ± 73 | 50.7
